In ChEMBL document CHEMBL4507269, “Data for DCP probe BAY-386” (2021):

Tests used:
[1] = target: Serine/threonine-protein kinase N1 (Homo sapiens) (UniProt Q16512); conditions: Compound concentration 1000.0 nM
[2] = target: Calcium/calmodulin-dependent protein kinase type II subunit delta (Homo sapiens) (UniProt Q13557); conditions: Compound concentration 1000.0 nM
[3] = target: P2Y purinoceptor 2 (Homo sapiens) (UniProt P41231); experiment: P2Y2 (h) Eurofins-Cerep Cellular and Nuclear Receptor Functional Assays; conditions: Compound concentration 10.0 uM
[4] = target: LIM domain kinase 2 (Homo sapiens) (UniProt P53671); conditions: Compound concentration 1000.0 nM
[5] = target: Serine/threonine-protein kinase Nek11 (Homo sapiens) (UniProt Q8NG66); conditions: Compound concentration 1000.0 nM
[6] = target: Casein kinase II subunit alpha (Homo sapiens) (UniProt P68400); conditions: Compound concentration 1000.0 nM
[7] = target: Serine/threonine-protein kinase N2 (Homo sapiens) (UniProt Q16513); conditions: Compound concentration 1000.0 nM
[8] = target: Interleukin-1 receptor-associated kinase 3 (Homo sapiens) (UniProt Q9Y616); conditions: Compound concentration 1000.0 nM
[9] = target: Wee1-like protein kinase (Homo sapiens) (UniProt P30291); conditions: Compound concentration 1000.0 nM
[10] = tested on: Fibroblast growth factor receptor 3 (Homo sapiens), P22607 [G697C]; conditions: Compound concentration 1000.0 nM
[11] = target: Interleukin-1 receptor-associated kinase 1 (Homo sapiens) (UniProt P51617); conditions: Compound concentration 1000.0 nM
[12] = target: Ephrin type-A receptor 3 (Homo sapiens) (UniProt P29320); conditions: Compound concentration 1000.0 nM
[13] = target: Cyclin-dependent kinase 14 (Homo sapiens) (UniProt O94921); conditions: Compound concentration 1000.0 nM
[14] = target: Proto-oncogene tyrosine-protein kinase receptor Ret (Homo sapiens) (UniProt P07949); conditions: Compound concentration 1000.0 nM
[15] = target: Cyclin-dependent kinase 8 (Homo sapiens) (UniProt P49336); conditions: Compound concentration 1000.0 nM
[16] = target: Calcium-dependent protein kinase 1 (Plasmodium falciparum) (UniProt P62344); conditions: Compound concentration 1000.0 nM
[17] = target: Tyrosine-protein kinase JAK1 (Homo sapiens) (UniProt P23458); conditions: Compound concentration 1000.0 nM
[18] = tested on: Hepatocyte growth factor receptor (Homo sapiens), P08581 [M1250T]; conditions: Compound concentration 1000.0 nM
[19] = target: Insulin receptor (Homo sapiens) (UniProt P06213); conditions: Compound concentration 1000.0 nM
[20] = target: T1, Alpha-2A adrenergic receptor (Homo sapiens) (UniProt P08913); experiment: alpha2A (h) Eurofins-Cerep Cellular and Nuclear Receptor Functional Assays; conditions: Compound concentration 10.0 uM
T1 sequence (whole entry): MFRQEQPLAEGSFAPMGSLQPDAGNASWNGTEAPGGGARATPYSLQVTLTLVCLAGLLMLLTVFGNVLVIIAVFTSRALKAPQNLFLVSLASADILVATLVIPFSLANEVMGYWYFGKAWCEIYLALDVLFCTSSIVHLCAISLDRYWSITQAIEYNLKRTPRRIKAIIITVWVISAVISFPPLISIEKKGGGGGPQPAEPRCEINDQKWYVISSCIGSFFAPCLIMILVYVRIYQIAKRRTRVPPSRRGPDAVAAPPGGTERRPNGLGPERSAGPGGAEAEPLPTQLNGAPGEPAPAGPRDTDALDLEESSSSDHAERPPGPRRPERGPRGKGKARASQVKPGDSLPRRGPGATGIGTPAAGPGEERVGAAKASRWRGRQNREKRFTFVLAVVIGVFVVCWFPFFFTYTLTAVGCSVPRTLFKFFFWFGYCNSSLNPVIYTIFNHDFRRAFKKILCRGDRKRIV

[21] = target: Serine/threonine-protein kinase Nek6 (Homo sapiens) (UniProt Q9HC98); conditions: Compound concentration 1000.0 nM
[22] = target: Mitogen-activated protein kinase 7 (Homo sapiens) (UniProt Q13164); conditions: Compound concentration 1000.0 nM
[23] = target: Serine/threonine-protein kinase Nek7 (Homo sapiens) (UniProt Q8TDX7); conditions: Compound concentration 1000.0 nM
[24] = tested on: Phosphatidylinositol 4,5-bisphosphate 3-kinase catalytic subunit alpha isoform (Homo sapiens), P42336 [M1043I]; conditions: Compound concentration 1000.0 nM
[25] = target: BMP-2-inducible protein kinase (Homo sapiens) (UniProt Q9NSY1); conditions: Compound concentration 1000.0 nM
[26] = tested on: Receptor-type tyrosine-protein kinase FLT3 (Homo sapiens), P36888 [UNDEFINED MUTATION]; conditions: Compound concentration 1000.0 nM
[27] = target: Histamine H3 receptor (Homo sapiens) (UniProt Q9Y5N1); experiment: H3 (h) Eurofins-Cerep Cellular and Nuclear Receptor Functional Assays; conditions: Compound concentration 10.0 uM
[28] = tested on: Phosphatidylinositol 4,5-bisphosphate 3-kinase catalytic subunit alpha isoform (Homo sapiens), P42336 [E545A]; conditions: Compound concentration 1000.0 nM
[29] = target: Ribosomal protein S6 kinase beta-1 (Homo sapiens) (UniProt P23443); conditions: Compound concentration 1000.0 nM
[30] = tested on: Mast/stem cell growth factor receptor Kit (Homo sapiens), P10721 [L576P]; conditions: Compound concentration 1000.0 nM
[31] = target: Tyrosine-protein kinase ABL1 (Homo sapiens) (UniProt P00519); conditions: Compound concentration 1000.0 nM
[32] = target: Calcium/calmodulin-dependent protein kinase type II subunit alpha (Homo sapiens) (UniProt Q9UQM7); conditions: Compound concentration 1000.0 nM
[33] = target: Mitogen-activated protein kinase kinase kinase kinase 2 (Homo sapiens) (UniProt Q12851); conditions: Compound concentration 1000.0 nM
[34] = target: Mitogen-activated protein kinase 12 (Homo sapiens) (UniProt P53778); conditions: Compound concentration 1000.0 nM
[35] = target: Homeodomain-interacting protein kinase 1 (Homo sapiens) (UniProt Q86Z02); conditions: Compound concentration 1000.0 nM
[36] = tested on: Serine/threonine-protein kinase B-raf (Homo sapiens), P15056 [V600E]; conditions: Compound concentration 1000.0 nM
[37] = target: Serine/threonine-protein kinase Nek2 (Homo sapiens) (UniProt P51955); conditions: Compound concentration 1000.0 nM
[38] = target: Activin receptor type-2B (Homo sapiens) (UniProt Q13705); conditions: Compound concentration 1000.0 nM

Sequence of P2Y purinoceptor 2 (Homo sapiens) (P41231 whole entry, the tested form may be a part): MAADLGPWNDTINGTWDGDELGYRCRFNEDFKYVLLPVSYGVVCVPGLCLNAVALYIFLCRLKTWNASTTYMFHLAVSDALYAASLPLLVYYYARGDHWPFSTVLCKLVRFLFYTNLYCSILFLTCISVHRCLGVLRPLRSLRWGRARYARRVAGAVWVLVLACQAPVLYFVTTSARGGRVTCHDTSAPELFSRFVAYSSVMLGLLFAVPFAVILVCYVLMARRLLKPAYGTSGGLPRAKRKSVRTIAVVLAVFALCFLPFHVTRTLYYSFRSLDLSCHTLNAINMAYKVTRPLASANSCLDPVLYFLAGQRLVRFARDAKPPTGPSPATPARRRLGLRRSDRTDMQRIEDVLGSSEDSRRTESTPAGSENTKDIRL
Sequence of Histamine H3 receptor (Homo sapiens) (Q9Y5N1 whole entry, canonical isoform): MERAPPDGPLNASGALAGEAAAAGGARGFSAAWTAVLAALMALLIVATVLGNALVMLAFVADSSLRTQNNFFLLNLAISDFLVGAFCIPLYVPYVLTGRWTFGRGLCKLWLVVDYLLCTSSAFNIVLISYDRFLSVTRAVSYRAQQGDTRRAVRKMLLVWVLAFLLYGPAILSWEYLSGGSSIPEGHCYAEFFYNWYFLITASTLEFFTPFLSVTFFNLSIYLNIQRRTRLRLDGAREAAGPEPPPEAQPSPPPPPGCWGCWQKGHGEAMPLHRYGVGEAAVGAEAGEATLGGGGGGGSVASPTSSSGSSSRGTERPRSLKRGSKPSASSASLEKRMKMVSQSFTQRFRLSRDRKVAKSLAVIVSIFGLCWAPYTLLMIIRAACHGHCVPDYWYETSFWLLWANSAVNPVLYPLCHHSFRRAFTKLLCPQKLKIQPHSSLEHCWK
Sequence of Phosphatidylinositol 4,5-bisphosphate 3-kinase catalytic subunit alpha isoform (Homo sapiens), P42336 [E545A] (P42336 whole entry E545A, canonical isoform): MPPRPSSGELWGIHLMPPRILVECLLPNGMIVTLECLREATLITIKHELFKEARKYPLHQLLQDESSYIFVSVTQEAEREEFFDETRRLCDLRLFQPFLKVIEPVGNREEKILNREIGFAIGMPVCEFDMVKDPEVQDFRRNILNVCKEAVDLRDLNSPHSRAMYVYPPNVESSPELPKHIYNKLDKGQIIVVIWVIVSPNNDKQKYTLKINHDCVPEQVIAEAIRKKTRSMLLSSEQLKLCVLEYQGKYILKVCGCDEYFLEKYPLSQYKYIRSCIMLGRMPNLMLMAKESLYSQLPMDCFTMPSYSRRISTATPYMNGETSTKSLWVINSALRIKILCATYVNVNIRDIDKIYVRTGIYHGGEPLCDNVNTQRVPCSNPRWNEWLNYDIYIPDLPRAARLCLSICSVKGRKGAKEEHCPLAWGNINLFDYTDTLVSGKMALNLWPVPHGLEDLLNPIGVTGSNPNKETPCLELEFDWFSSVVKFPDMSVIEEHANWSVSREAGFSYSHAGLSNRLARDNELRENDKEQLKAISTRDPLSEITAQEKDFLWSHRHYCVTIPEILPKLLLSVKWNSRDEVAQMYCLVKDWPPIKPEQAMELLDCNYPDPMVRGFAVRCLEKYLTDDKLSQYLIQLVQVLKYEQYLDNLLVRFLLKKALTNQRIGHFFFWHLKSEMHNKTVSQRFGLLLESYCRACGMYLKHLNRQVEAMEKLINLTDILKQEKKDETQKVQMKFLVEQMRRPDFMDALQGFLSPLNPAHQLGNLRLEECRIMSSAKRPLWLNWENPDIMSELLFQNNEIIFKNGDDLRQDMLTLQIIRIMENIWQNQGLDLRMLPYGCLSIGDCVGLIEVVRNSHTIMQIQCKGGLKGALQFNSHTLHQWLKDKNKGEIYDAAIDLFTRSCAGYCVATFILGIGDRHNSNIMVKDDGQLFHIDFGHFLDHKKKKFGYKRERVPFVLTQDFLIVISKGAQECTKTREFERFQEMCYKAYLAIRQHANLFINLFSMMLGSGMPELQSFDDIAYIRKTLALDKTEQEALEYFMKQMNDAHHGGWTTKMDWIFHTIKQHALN
Sequence of Receptor-type tyrosine-protein kinase FLT3 (Homo sapiens), P36888 [UNDEFINED MUTATION] (P36888 whole entry, looked up, stated change not applied): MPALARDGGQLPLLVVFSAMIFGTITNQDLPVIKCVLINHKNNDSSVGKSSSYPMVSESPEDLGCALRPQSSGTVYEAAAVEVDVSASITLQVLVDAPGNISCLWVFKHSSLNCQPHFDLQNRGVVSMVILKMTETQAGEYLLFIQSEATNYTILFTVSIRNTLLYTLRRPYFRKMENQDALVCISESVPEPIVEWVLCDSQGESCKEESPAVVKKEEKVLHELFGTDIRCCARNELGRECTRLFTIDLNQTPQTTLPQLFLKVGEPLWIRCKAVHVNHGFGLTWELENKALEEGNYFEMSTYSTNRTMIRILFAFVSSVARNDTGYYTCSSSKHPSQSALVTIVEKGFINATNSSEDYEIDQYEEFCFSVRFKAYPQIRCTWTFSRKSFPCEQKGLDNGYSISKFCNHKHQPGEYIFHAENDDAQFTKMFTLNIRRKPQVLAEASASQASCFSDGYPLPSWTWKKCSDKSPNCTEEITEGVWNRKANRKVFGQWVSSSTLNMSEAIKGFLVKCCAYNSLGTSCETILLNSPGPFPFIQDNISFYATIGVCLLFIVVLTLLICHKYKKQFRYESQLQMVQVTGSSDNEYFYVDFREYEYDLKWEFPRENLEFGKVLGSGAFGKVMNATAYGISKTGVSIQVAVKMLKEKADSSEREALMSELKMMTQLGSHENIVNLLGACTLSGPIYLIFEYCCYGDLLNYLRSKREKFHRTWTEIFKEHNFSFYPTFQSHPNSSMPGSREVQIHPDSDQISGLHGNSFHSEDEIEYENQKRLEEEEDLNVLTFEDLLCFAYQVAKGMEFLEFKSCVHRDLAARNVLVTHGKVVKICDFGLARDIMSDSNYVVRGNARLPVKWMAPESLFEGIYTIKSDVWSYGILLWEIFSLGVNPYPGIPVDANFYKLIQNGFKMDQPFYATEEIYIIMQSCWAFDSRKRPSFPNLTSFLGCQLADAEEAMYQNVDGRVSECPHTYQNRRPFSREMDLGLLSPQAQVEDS
Sequence of Calcium-dependent protein kinase 1 (Plasmodium falciparum) (P62344 2-524 limits assumed): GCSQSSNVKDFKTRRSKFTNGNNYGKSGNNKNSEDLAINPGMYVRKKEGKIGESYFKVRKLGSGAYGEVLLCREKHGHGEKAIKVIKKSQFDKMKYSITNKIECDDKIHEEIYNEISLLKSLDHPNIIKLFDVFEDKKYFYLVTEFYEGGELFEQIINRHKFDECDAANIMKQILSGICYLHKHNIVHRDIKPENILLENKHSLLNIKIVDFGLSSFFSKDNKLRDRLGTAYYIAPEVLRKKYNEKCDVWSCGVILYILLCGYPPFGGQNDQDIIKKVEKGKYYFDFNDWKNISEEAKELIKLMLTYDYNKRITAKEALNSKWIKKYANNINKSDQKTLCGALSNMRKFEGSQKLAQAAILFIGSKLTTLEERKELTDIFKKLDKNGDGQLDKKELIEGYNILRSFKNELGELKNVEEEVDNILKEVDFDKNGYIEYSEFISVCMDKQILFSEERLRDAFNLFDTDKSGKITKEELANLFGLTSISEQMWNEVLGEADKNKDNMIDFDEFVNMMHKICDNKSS
Sequence of Serine/threonine-protein kinase N1 (Homo sapiens) (Q16512 2-942 limits assumed): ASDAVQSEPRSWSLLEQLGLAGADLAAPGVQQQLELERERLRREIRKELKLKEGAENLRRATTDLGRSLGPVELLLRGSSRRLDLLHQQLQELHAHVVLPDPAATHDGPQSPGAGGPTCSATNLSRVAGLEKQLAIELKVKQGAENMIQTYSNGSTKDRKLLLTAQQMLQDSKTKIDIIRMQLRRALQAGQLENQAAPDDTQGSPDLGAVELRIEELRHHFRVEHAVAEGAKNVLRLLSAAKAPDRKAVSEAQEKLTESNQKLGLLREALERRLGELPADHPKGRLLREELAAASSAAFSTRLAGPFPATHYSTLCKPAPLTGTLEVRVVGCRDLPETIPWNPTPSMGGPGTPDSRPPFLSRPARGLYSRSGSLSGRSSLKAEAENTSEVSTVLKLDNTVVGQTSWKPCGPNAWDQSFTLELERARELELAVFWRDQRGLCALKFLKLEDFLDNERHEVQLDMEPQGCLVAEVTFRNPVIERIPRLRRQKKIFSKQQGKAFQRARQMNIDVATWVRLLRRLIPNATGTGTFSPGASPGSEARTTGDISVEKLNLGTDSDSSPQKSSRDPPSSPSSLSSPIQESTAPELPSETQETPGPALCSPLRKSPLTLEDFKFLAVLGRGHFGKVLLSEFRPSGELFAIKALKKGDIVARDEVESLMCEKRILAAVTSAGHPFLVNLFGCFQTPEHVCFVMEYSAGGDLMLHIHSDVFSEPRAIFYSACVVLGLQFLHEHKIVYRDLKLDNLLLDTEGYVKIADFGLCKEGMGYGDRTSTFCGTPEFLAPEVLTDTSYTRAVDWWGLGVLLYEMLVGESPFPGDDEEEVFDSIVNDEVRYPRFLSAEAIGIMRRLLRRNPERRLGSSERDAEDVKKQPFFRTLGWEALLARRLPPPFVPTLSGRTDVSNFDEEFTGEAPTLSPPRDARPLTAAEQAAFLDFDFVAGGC
Sequence of Serine/threonine-protein kinase Nek7 (Homo sapiens) (Q8TDX7 whole entry, looked up, canonical isoform): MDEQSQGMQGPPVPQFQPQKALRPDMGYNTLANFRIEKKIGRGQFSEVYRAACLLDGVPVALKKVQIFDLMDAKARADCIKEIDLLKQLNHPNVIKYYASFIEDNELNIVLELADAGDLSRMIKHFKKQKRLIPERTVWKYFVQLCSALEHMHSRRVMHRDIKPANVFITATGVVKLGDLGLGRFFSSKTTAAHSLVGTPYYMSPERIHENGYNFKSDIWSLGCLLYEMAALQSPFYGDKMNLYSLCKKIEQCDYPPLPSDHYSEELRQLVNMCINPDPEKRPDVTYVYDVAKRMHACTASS
Sequence of Casein kinase II subunit alpha (Homo sapiens) (P68400 whole entry, looked up): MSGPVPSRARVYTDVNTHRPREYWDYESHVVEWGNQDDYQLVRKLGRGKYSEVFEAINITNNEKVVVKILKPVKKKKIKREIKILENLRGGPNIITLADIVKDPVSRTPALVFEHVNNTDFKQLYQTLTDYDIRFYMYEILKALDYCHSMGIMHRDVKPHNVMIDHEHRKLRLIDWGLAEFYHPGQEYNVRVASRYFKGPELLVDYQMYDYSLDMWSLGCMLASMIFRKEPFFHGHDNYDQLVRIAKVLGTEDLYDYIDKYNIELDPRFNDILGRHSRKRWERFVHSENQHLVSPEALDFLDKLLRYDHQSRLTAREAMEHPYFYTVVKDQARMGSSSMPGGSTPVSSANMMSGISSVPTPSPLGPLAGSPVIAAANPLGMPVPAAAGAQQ

Compound: O=C(N1CCS(=O)(=O)CC1)N1C[C@H](c2ccc(OC(F)(F)F)cc2)C[C@H](c2nc(C3CC3)no2)C1 [BAY-386]
- residual activity [1]: 100%
- residual activity [2]: 100%
- % Inhibition of Control Agonist Response (Mean n=2) [3]: 41.9%
- % of Control Agonist Response (Mean n=2) [3]: 0.7%
- residual activity [4]: 95%
- residual activity [5]: 100%
- residual activity [6]: 100%
- residual activity [7]: 100%
- residual activity [8]: 100%
- residual activity [9]: 100%
- residual activity [10]: 100%
- residual activity [11]: 92%
- residual activity [12]: 100%
- residual activity [13]: 100%
- residual activity [14]: 93%
- residual activity [15]: 100%
- residual activity [16]: 92%
- residual activity [17]: 88%
- residual activity [18]: 100%
- residual activity [19]: 94%
- % Inhibition of Control Agonist Response (Mean n=2) [20]: -1.7%
- % of Control Agonist Response (Mean n=2) [20]: 6.3%
- residual activity [21]: 98%
- residual activity [22]: 100%
- residual activity [23]: 100%
- residual activity [24]: 100%
- residual activity [25]: 97%
- residual activity [26]: 93%
- % Inhibition of Control Agonist Response (Mean n=2) [27]: -3.7%
- % of Control Agonist Response (Mean n=2) [27]: 6.2%
- residual activity [28]: 100%
- residual activity [29]: 100%
- residual activity [30]: 100%
- residual activity [31]: 84%
- residual activity [32]: 100%
- residual activity [33]: 94%
- residual activity [34]: 100%
- residual activity [35]: 100%
- residual activity [36]: 100%
- residual activity [37]: 100%
- residual activity [38]: 86%

Compound: Cc1noc([C@H]2C[C@@H](c3ccc(C(F)(F)F)cc3)CN(C(=O)N3CCS(=O)(=O)C3)C2)n1 [BAY-448]
- residual activity [1]: 100%
- residual activity [2]: 100%
- % Inhibition of Control Agonist Response (Mean n=2) [3]: 29.1%
- % of Control Agonist Response (Mean n=2) [3]: -4.2%
- residual activity [4]: 100%
- residual activity [5]: 100%
- residual activity [6]: 86%
- residual activity [7]: 100%
- residual activity [8]: 100%
- residual activity [9]: 100%
- residual activity [10]: 84%
- residual activity [11]: 100%
- residual activity [12]: 100%
- residual activity [13]: 100%
- residual activity [14]: 100%
- residual activity [15]: 100%
- residual activity [16]: 82%
- residual activity [17]: 98%
- residual activity [18]: 100%
- residual activity [19]: 85%
- % Inhibition of Control Agonist Response (Mean n=2) [20]: -13.5%
- % of Control Agonist Response (Mean n=2) [20]: 2.5%
- residual activity [21]: 100%
- residual activity [22]: 87%
- residual activity [23]: 100%
- residual activity [24]: 100%
- residual activity [25]: 100%
- residual activity [26]: 100%
- % Inhibition of Control Agonist Response (Mean n=2) [27]: -4.2%
- % of Control Agonist Response (Mean n=2) [27]: 13.9%
- residual activity [28]: 64%
- residual activity [29]: 75%
- residual activity [30]: 100%
- residual activity [31]: 71%
- residual activity [32]: 100%
- residual activity [33]: 100%
- residual activity [34]: 100%
- residual activity [35]: 82%
- residual activity [36]: 89%
- residual activity [37]: 100%
- residual activity [38]: 100%
